Columns and labels:
[1] = tested on: Staphylococcus aureus USA300 JE2; experiment: Broth microdilution (MIC/MBC); format: cell-based; conditions: USA300 JE2, human clinical isolate
S. aureus ATCC BAA-1556 = experiment: Broth microdilution (MIC/MBC); format: cell-based; conditions: Staphylococcus aureus, ATCCBAA1556; ATCC BAA-1556, human clinical isolate
[2] = tested on: S. epidermidis 105 (in house strain); experiment: Broth microdilution (MIC/MBC); format: cell-based; conditions: Staphylococcus epidermidis; strain 105, human clinical isolate
[3] = tested on: Cutibacterium acnes P10140156 (in house strain); experiment: Broth microdilution (MIC/MBC), anaerobic; format: cell-based
[4] = tested on: Enterococcus faecalis JEO72G7B; experiment: Broth microdilution (MIC/MBC); format: cell-based; conditions: veterinary clinical isolate
[5] = tested on: Enterococcus faecium ATCC 700221; experiment: Broth microdilution (MIC/MBC); format: cell-based; conditions: ATCC700221, ATCC 700221, human clinical isolate
Proteus vulgaris JEO1 = experiment: Broth microdilution (MIC/MBC); format: cell-based; conditions: JEO1, veterinary clinical isolate
[6] = tested on: E. coli APEC O2 (in house strain); experiment: Broth microdilution (MIC/MBC); format: cell-based; conditions: Escherichia coli; APEC O2, veterinary clinical isolate
[7] = tested on: eight Gram-positive pathogenic bacteria; experiment: Broth microdilution, summary over Gram-positive isolates; format: cell-based
[8] = tested on: three Gram-negative pathogenic bacteria; experiment: Broth microdilution, summary over Gram-negative isolates; format: cell-based
S. aureus ATCC-BAA = experiment: Agar dilution MIC; format: cell-based; conditions: Staphylococcus aureus, MHA plates
Experimental: (§1) Initially, MHA plates with JBC 1847 concentrations ranging from 0.5 to 8 mg/L were made and bacterial inoculum was prepared as previously described, was added to each plate. […] The MIC values for the two S. aureus strains were both determined to 4 mg/L and therefore, TSA plates with a JBC 1847 concentration of 2 mg/L were prepared to ensure the strains were able to grow. One dish of each type of antibiotic was added to a single TSA plate with JBC 1847 and a control plate containing only TSA and inoculated as previously described. Two plates containing only 2 mg/L JBC 1847 and bacterial inoculum for each strain served as a positive control. After incubation, clearing zones were measured and compared between control and JBC 1847 plates.

S. aureus USA300 JE2 = experiment: Agar dilution MIC; format: cell-based; conditions: Staphylococcus aureus, MHA plates
Experimental: as §1

MRSA USA300 = experiment: Transmission electron microscopy; format: cell-based, Staphylococcus aureus; conditions: concentration corresponding to the MIC, 1 h, vs untreated control
Experimental: To elucidate the interaction between JBC 1847 and MRSA USA300, transmission electron microscopy (TEM) was carried out. Bacterial cultures were inoculated in 10 ml MHB and cultivated at 37°C for 5 h, with shaking, until mid-exponential growth phase ([…]). […] An untreated control was also prepared. The five samples were placed on ice until being prepared for TEM. This included a fixation step in 2% glutaraldehyde in 0.15 M sodium phosphate buffer (pH 7.2). Subsequently, the fixed cells were washed three times and postfixed with 0.2% OsO4 (osmium tetroxide) in H2O/0.15 M sodium phosphate buffer (pH 7.2) for 1 h. The samples were then dehydrated with graded acetone, and then embedded in epoxy resin. Ultrathin sections of the samples were prepared using Formvar-coated copper grids, which were stained using 3% uranyl acetate. The samples were placed in a Philips CM 100 Transmission EM (Philips, Eindhoven, Netherlands) and exposed to 120 keV electron energy.

[9] = tested on: five bacterial tester strains; experiment: Ames test, overall evaluation (five tester strains); format: cell-based; conditions: in general
Text: In this reverse mutation assay, five bacterial tester strains recommended by The Organization for Economic Cooperation and Development (OECD), were exposed to JBC 1847 in presence and absence of a metabolic activation system (S9) obtained from rat liver extract ([Maron and Ames, 1983]; [Levy et al., 2019]). The characteristics of the four Salmonella typhimurium mutants (TA98, TA100, TA1535, TA1537) and a single Escherichia coli mutant [wp2 (pKM101)] have been described by [Mortelmans and Zeiger (2000)] and [Levy et al. (2019)]. Prior to testing, the genotypes of all strains were confirmed as previously described ([Mortelmans and Zeiger, 2000]), and JBC 1847 was tested in various concentrations (1.5, 4, 10, 25, 64, 160, 400, and 1,000 μg/well) whereas DMSO served as negative control. As positive controls, five mutagenic compounds were applied in various concentrations (Supplementary Material). The Ames test was performed as described in Supplementary Material where acceptance criteria for the test results can also be found. To evaluate the test results, the mutagenicity ratio (MR) was calculated and interpreted as in previous studies ([Pah and Lakhani, 2012]; [Wang et al., 2018]). The MR was calculated as MR = x/xn. Here, x was the number of reverse mutated colonies exposed to JCB 1847 whereas xn was the number of reverse mutated colonies in the negative controls. […]

SMILES: CC(C)=CCCC(C)CC[N+](C)(C)CCCN1c2ccccc2Sc2ccccc21 (stereo not shown) [JBC 1847]
- MBC [1]: 0.5 µg/mL
- MIC ([1]; read-out: MIC): 0.5 µg/mL
- MBC (S. aureus ATCC BAA-1556): 0.5 µg/mL
- MIC (S. aureus ATCC BAA-1556): 0.5 µg/mL
- MIC [2]: 0.5 µg/mL
- MBC ([3]; BHI agar with 1% L-cystein): 0.5 to 1 µg/mL
- MIC ([3]; BHI with 1% L-cysteine): 0.5 to 1 µg/mL
- MBC [4]: 1 µg/mL
- MIC [4]: 1 µg/mL
- MBC [5]: 2 to 4 µg/mL
- MIC [5]: 2 µg/mL
- MBC (Proteus vulgaris JEO1): 32 µg/mL
- MIC (Proteus vulgaris JEO1): 32 µg/mL
- MBC [6]: 16 µg/mL
- MIC [6]: 16 µg/mL
- MIC values (range over isolates) [7]: 0.5 to 2 µg/mL
- MIC values (range over isolates) [8]: 8 to 32 µg/mL
- MIC (S. aureus ATCC-BAA): 4 µg/mL
- MIC (S. aureus USA300 JE2): 4 µg/mL
- TEM appearance of bacterial cells (MRSA USA300): clearly lysed and the plasma membrane destroyed
- Mutagenicity ratio (MR) ([9]; all strains, MR ≥ 2 interpreted as positive): < 2
- Ames test result ([9]; presence and absence of S9): non-mutagenic

Source: article PMC7555839 (Frontiers in Microbiology, 2020)
